In ChEMBL document CHEMBL1136061, “Novel potent antagonists of human neuropeptide Y Y5 receptors. Part 2: substituted benzo[a]cycloheptene derivatives” (Bioorg Med Chem Lett, 2002) one finds IC50 and inhibition data, which are given here for 21 molecules.

Structures are written as SMILES.

The target in assay [1] is T1, Neuropeptide Y receptor type 5 (Homo sapiens, UniProt Q15761).
T1 sequence (Q15761 whole entry): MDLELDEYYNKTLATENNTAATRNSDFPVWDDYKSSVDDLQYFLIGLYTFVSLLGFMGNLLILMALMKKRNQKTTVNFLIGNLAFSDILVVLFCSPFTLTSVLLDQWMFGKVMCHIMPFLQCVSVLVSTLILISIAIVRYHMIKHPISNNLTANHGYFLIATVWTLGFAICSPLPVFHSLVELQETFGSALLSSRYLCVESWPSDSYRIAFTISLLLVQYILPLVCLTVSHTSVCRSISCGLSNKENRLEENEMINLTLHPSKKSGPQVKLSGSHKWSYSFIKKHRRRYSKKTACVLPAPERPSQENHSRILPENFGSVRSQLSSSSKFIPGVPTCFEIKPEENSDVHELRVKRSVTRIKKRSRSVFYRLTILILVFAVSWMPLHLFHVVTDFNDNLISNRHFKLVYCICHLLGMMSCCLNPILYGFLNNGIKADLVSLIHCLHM
Briefly: (§1) Concentration that inhibited 50% of total specific binding of [125I]PYY ligand to human NPY-Y5 receptor.

In assay [2] the target is T2, Neuropeptide Y receptor type 1 (Homo sapiens, UniProt P25929).
T2 sequence (P25929 whole entry): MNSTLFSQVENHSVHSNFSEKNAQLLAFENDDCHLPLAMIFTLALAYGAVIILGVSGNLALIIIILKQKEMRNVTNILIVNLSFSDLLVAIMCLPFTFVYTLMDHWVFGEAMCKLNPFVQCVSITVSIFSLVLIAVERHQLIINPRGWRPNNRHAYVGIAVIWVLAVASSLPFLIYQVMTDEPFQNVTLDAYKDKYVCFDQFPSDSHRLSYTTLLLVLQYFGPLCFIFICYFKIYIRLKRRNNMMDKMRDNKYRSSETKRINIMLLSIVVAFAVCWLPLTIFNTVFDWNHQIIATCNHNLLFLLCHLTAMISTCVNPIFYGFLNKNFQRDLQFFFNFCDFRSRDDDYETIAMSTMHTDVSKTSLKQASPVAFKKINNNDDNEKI
Briefly: Concentration that inhibited 50% of total specific binding of [125I]PYY ligand to human NPY-Y1 receptor.

In assay [3] the target is T3, Neuropeptide Y receptor type 5 (Homo sapiens) (UniProt Q15761).
T3 sequence (whole entry): T1 sequence (Q15761 whole entry)
The description is as §1.

The IC50 is the midpoint of a concentration-inhibition curve. `COc1ccc2c(c1)CC(NC1CCN(CCNS(=O)(=O)c3cccc4ccccc34)CC1)CCC2` (stereo not drawn): the figures for the IC50 in assay [1] and in assay [2] were 66 nM and 35000 nM, respectively.

As to `O=S(=O)(NCCN1CCC(CNC2CCCc3ccc(Cl)cc3C2)CC1)c1cccc2ccccc12` (stereo not drawn), the IC50 is 85 nM in assay [1] and 8500 nM in assay [2].

Regarding `COc1cc2c(cc1OC)CC(NCC1CCN(CCNS(=O)(=O)c3cccc4ccccc34)CC1)CCC2` (stereo not drawn), the IC50 in assay [1] is 68 nM; in assay [2] it was 17000 nM.

In the case of `COc1ccc2c(c1)CC(NCC1CCN(CCNS(=O)(=O)c3cccc4ccccc34)CC1)CCC2` (stereo not drawn), the IC50 turned out to be 45 nM in assay [1] and 14000 nM in assay [2].

Turning to `COc1ccc2c(c1)CCCC(NCCN1CCC(CNS(=O)(=O)c3cccc4ccccc34)CC1)C2` (stereo not drawn), in assay [1], the half-inhibitory concentration (IC50) came out at 1000 nM.

Turning to `CCOC(=O)COc1ccc2c(c1)CC(NCC1CCN(CCNS(=O)(=O)c3cccc4ccccc34)CC1)CCC2` (stereo not drawn), in assay [1], the IC50 came out at 680 nM. This IC50 and that of the molecule before are within 1.5-fold of each other.

`O=S(=O)(NCCN1CCC(CNC2CCCc3ccccc3C2)CC1)c1cccc2ccccc12` (stereo not drawn): the IC50 in assay [1] stood at 210 nM. This IC50 is about 3.2-fold lower than that of the molecule before.

As for `Nc1ccc2c(c1)CC(NCC1CCN(CCNS(=O)(=O)c3cccc4ccccc34)CC1)CCC2` (stereo not drawn), in assay [1], the IC50 was determined as 52 nM.

With `COc1ccc2c(c1)CC(CNCCN1CCC(CNS(=O)(=O)c3cccc4ccccc34)CC1)CCC2` (stereo not drawn), the IC50 amounted to 540 nM in assay [1] and 2800 nM in assay [2].

Turning to `O=S(=O)(NC[C@H]1CC[C@@H](CNCC2CCc3ccccc3C2)CC1)c1cccc2ccccc12` (stereo partly drawn), the IC50 turned out to be 38 nM in assay [1] and 1300 nM in assay [2].

Usually inhibition stands for the share of the control response that was lost under treatment. A high value points to a strong effect. In turn, `O=C(O)COc1ccc2c(c1)CC(NCC1CCN(CCNS(=O)(=O)c3cccc4ccccc34)CC1)CCC2` (stereo not drawn) yielded an inhibition in assay [3] of 25.7%.

As to `COc1ccc2c(c1)CC(CNCC1CCN(CCNS(=O)(=O)c3cccc4ccccc34)CC1)CCC2` (stereo not drawn), the half-maximal inhibitory concentration (IC50) in assay [1] turned out to be 16 nM; in assay [2], 9600 nM.

In the case of `COc1ccc2c(c1)CC(NCCN1CCC(CNS(=O)(=O)c3cccc4ccccc34)CC1)CCC2` (stereo not drawn), the IC50 is 740 nM in assay [1] and 19000 nM in assay [2].

Turning to `COc1ccc2c(c1OC)CC(NCC1CN(CCNS(=O)(=O)c3cccc4ccccc34)C1)CCC2` (stereo not drawn), the IC50 in assay [1] is 140 nM.

As to `COc1ccc2c(c1)CC(CNCC1CN(CCNS(=O)(=O)c3cccc4ccccc34)C1)CCC2` (stereo not drawn), the IC50 in assay [1] is 86 nM; in assay [2] it was 22000 nM.

In the case of `Cc1ccc2c(c1)CC(NCC1CCN(CCNS(=O)(=O)c3cccc4ccccc34)CC1)CCC2` (stereo not drawn), the IC50 was found to be 72 nM in assay [1] and 18000 nM in assay [2].

In the case of `COc1ccc2c(c1)CC(CNC1CCN(CCNS(=O)(=O)c3cccc4ccccc34)CC1)CCC2` (stereo not drawn), the values for the IC50 in assay [1] and in assay [2] were 39 nM and 29000 nM, respectively.

In assay [1], `O=S(=O)(NCCN1CC(CNC2CCCc3ccc(Cl)cc3C2)C1)c1cccc2ccccc12` (stereo not drawn) displayed an IC50 of 310 nM.

Turning to `Cc1ccc2c(c1)CC(NCC1CN(CCNS(=O)(=O)c3cccc4ccccc34)C1)CCC2` (stereo not drawn), the IC50 in assay [1] is 190 nM.

In assay [1], `COc1cccc2c1CCCC(NCCN1CCC(CNS(=O)(=O)c3cccc4ccccc34)CC1)C2` (stereo not drawn) had an IC50 greater than 1000 nM.

For `O=[N+]([O-])c1ccc2c(c1)CC(NCC1CCN(CCNS(=O)(=O)c3cccc4ccccc34)CC1)CCC2` (stereo not drawn), the results for the IC50 in assay [1] and in assay [2] were 79 nM and 15000 nM, respectively.
